Reference: ChEMBL document CHEMBL5096192, “Recent advancements in anti-leishmanial research: Synthetic strategies and structural activity relationships” (Eur J Med Chem, 2021)
Converted amounts (≈) assume the structure as drawn.

Assays:
[1] = test system: Leishmania major; test: Antileishmanial activity against Leishmania major axenic amastigotes assessed as parasite growth inhibition by Alamar blue assay; format: functional, organism-based
[2] = test system: Leishmania major; test: Antileishmanial activity against Leishmania major JISH118 promastigote infected in human THP-1 cells assessed as parasite growth inhibition measured after 48 hrs by Giemsa staining based analysis; format: functional, organism-based; conditions: JISH118, THP-1, 48 h
[3] = test system: Leishmania donovani; test: Antileishmanial activity against promastigote form of wild-type Leishmania donovani MHOM/80/IN/Dd8 assessed as inhibition of parasite growth incubated for 48 hrs by MTT assay; format: functional, organism-based; conditions: MHOM/80/IN/Dd8, 48 h
[4] = test system: Leishmania panamensis; test: Antileishmanial activity against Leishmania panamensis MHOM/CO/87/UA140pIR-GFP intracellular amastigotes infected in human U-937 cells assessed as parasite growth inhibition measured after 72 hrs by flow cytometry analysis; format: functional, organism-based; conditions: U-937, 72 h
[5] = molecular target: Trypanothione reductase (Leishmania donovani) (UniProt P39050); test: Inhibition of Leishmania donovani trypanothione reductase expressed in Escherichia coli BL21(DE3) using TS2 and NADPH as substrate at 100 uM preincubated for 5 mins followed by substrate addition by DTNB-reagent based spectrophotometric method
Chain of Trypanothione reductase (Leishmania donovani) (P39050 whole entry): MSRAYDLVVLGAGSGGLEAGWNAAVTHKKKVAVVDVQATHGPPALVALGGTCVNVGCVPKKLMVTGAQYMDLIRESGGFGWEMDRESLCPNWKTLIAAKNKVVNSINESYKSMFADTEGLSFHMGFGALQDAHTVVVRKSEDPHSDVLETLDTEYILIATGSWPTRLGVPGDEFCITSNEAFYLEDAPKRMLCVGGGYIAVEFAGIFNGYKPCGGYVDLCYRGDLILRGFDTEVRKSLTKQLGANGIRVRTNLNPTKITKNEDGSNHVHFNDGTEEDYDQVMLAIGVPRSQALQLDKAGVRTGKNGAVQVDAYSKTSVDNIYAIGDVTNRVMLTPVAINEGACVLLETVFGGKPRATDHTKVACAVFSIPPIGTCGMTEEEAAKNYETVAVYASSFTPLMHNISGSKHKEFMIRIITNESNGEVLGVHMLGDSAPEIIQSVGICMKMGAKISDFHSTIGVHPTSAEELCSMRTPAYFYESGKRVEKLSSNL

[6] = test system: Leishmania donovani; test: Antileishmanial activity against promastigote form of Leishmania donovani MHOM/IN/80/Dd8 transfected with firefly luciferase gene assessed as parasite growth inhibition incubated for 96 hrs by Steady Glo reagent based luminescence assay; format: functional, organism-based; conditions: MHOM/IN/80/Dd8, 96 h
[7] = Cytotoxicity against mouse J774.A1 cells assessed as reduction in cell viability incubated for 48 hrs by MTT assay; format: toxicity, cell-based
[8] = test system: Leishmania amazonensis; test: Antileishmanial activity against promastigote form of Leishmania amazonensis MHOM/BR/77/LTB0016 incubated for 24 hrs by MTT assay; format: functional, organism-based; conditions: MHOM/BR/77/LTB0016, 24 h
[9] = test system: Leishmania donovani; test: Antileishmanial activity against Leishmania donovani Bob intracellular amastigotes assessed as parasite growth inhibition incubated for 72 hrs by LDH assay; format: functional, organism-based
[10] = test system: Leishmania infantum; test: Antileishmanial activity against promastigote form of Leishmania infantum BH 46 assessed as parasite growth inhibition measured after 48 hrs by Celltiter-Glo assay; format: functional, organism-based; conditions: BH 46, 48 h
[11] = Cytotoxicity against BALB/c mouse peritoneal macrophages assessed as reduction in cell viability measured after 48 hrs by luminescence based CellTiter-Glo assay; format: toxicity, Peritoneal macrophage
[12] = Selectivity index, ratio of CC50 for cytotoxicity against human THP1 cells to IC50 for antileishmanial activity against promastigote form of Leishmania donovani; format: toxicity, cell-based; conditions: read-out: Ratio CC50/IC50
[13] = test system: Leishmania donovani; test: Antileishmanial activity against promastigote form of Leishmania donovani assessed as inhibition of promastigote growth incubated for 48 hrs by Alamar blue assay; format: functional, organism-based
[14] = test system: Leishmania donovani; test: Antileishmanial activity against promastigote form of Leishmania donovani MHOM/IN/83/AG83 assessed as inhibition of promastigote growth incubated for 48 hrs by MTT reduction assay; format: functional, organism-based; conditions: MHOM/IN/83/AG83, 48 h
[15] = test system: Leishmania donovani; test: Antileishmanial activity against Leishmania donovani MHOM/IN/83/AG83 intracellular amastigotes infected in mouse RAW264.7 cells assessed as parasite growth inhibition incubated for 48 hrs by Giemsa staining based microscopic analysis; format: functional, organism-based; conditions: MHOM/IN/83/AG83, RAW264.7, 48 h
[16] = test system: Leishmania amazonensis; test: Antileishmanial activity against promastigote form of Leishmania amazonensis IFLA/BR/1967/PH8 assessed as parasite growth inhibition incubated for 72 hrs by MTT assay; format: functional, organism-based; conditions: IFLA/BR/1967/PH8, 72 h
[17] = test system: Leishmania mexicana; test: Antileishmanial activity against promastigote form of Leishmania mexicana assessed as inhibition of parasite growth measured for 10 days by Neubauer counting chamber based analysis; format: functional, organism-based; conditions: 240 h
[18] = test system: Leishmania panamensis; test: Antileishmanial activity against Leishmania panamensis MHOM/CO/87/UA140-EGFP intracellular amastigotes infected in U-937 cells assessed as parasite growth inhibition measured after 72 hrs by flow cytometry analysis; format: functional, organism-based; conditions: U-937, 72 h
[19] = test system: U-937; test: Cytotoxicity against human U-937 cells assessed as reduction in cell viability measured after 72 hrs by MTT assay; format: functional; conditions: read-out: LC50 (the source's name)
[20] = test system: Trypanosoma cruzi; test: Antitrypanosomal activity against Trypanosoma cruzi Tulahuen intracellular amastigotes transfected with beta-galactosidase infected in human U-937 cells assessed as viability of intracellular amastigotes measured after 72 hrs by spectrophotometry; format: functional, organism-based; conditions: U-937, 72 h
[21] = test system: Leishmania major; test: Antileishmanial activity against Leishmania major (MHOM/IR/-173) promastigotes assessed as inhibition of parasite growth incubated for 72 hrs by alamar blue staining based analysis; format: functional, organism-based; conditions: MHOM/IR/-173, 72 h
[22] = test system: Mycobacterium tuberculosis; test: Antimycobacterial activity against Mycobacterium tuberculosis H37Rv ATCC 27294 assessed as inhibition of bacterial growth and measured at 7 to 14 day by broth microdilution assay; format: functional; conditions: time 7-14 day
[23] = test system: Leishmania mexicana; test: Antileishmanial activity against mammalian stage Leishmania mexicana MNYC/BZ/62/M379 axenic amastigotes assessed as inhibition of […] incubated for 24 hrs by alamar blue assay; format: functional; conditions: read-out: ED50 (the source's name)

SMILES: COc1ccc(-c2nn(-c3ccccc3)cc2/C=C/C(=O)c2ccc([N+](=O)[O-])cc2)cc1
- IC50 [1]: 2.3 µM

SMILES: Clc1cccc(Nc2nnc(-c3ccc(C(c4c[nH]c5ccccc45)c4c[nH]c5ccccc45)cc3)s2)c1
- IC50 [2]: 0.7 µM

SMILES: CN(C)CCCn1cc(/C=C/C(=O)c2ccc(I)cc2)c2ccccc21
- IC50 [3]: 24.2 µM

SMILES: O=C(/C=C/c1ccco1)c1ccc(OCCCCCOc2cccc3cccnc23)cc1
- EC50 [4]: 13.8 µM

SMILES: C=C(C1c2[nH]c3ccccc3c2CCN1C(=O)OC(C)(C)C)N(CC(=O)NC(C)(C)C)Cc1ccc(C)cc1 (stereo unspecified)
- inhibition [5]: 53%
- IC50 [6]: 0.06 µM

SMILES: O=C1c2ccccc2C(=O)N1CCn1cc(-c2ccccc2)nn1
- CC50 at 48 h [7]: > 500 µM

SMILES: NC(=S)N/N=C(\C=C\c1ccc(Cl)cc1)c1ccccc1
- IC50 [8]: 5.22 µM

SMILES: O=c1ccoc2cc(OCCCCOc3cccc4ccccc34)ccc12
- EC50 [4]: 6.11 µg/mL

SMILES: COC(=O)C(N)Cc1c[nH]c2ccccc12 (stereo unspecified)
- IC50 [9]: 18.2 µM

SMILES: C/C(=N\Nc1nc(-c2ccc(Br)cc2)cs1)c1ccccn1
- IC50 [10]: 3.12 µM
- CC50 at 48 h [11]: 2.95 µM

SMILES: Cc1cc(N2C(=O)C(Cl)=C(Cl)C2=O)ccc1[N+](=O)[O-]
- selectivity ratio [12]: > 781
- IC50 [13]: < 0.0128 µg/mL

SMILES: COc1cc(-c2nnc(/C=C/c3cn(-c4ccccc4)nc3-c3ccccc3)o2)cc(OC)c1OC
- IC50 [14]: 33.3 µg/mL (≈ 69.3 µM)
- IC50 [15]: 44.2 µg/mL (≈ 92 µM)

SMILES: Cc1ccc(-c2nn(-c3ccccc3)cc2/C=C/c2nnc(-c3sc4ccccc4c3Cl)o2)cc1
- IC50 [14]: 19 µg/mL (≈ 38.4 µM)
- IC50 [15]: 73.1 µg/mL (≈ 148 µM)

SMILES: O=C(CC[Se]c1ccnc2cc(Cl)ccc12)Nc1ccc([N+](=O)[O-])cc1
- IC50 [16]: 10.8 µg/mL (≈ 24.9 µM)

SMILES: Fc1cccc(Nc2cnc3ccccc3c2)c1
- IC50 [17]: 41.9 µM

SMILES: Clc1ccc(COc2ccc(-c3nc4ccccc4o3)cc2)c(Cl)c1
- IC50 [3]: 57 µM

SMILES: CN(C)CCCn1cc(/C=C/C(=O)c2ccc(Cl)cc2)c2ccccc21
- IC50 [3]: 21.5 µM

SMILES: O=C1C=C(c2ccc(C(F)(F)F)cc2)S(=O)(=O)c2ccc(F)cc21
- EC50 [18]: 3.24 µM
- CC50 [19]: 561 µM

SMILES: CCCCC(CCCCCCC[n+]1ccn(C)c1)Oc1ccc(C(=O)/C=C/c2ccco2)cc1 (stereo unspecified)
- EC50 [20]: 0.72 µM
- EC50 [4]: 2.12 µM

SMILES: O=C1C=C(c2ccc(F)cc2)S(=O)(=O)c2ccccc21
- EC50 [18]: 6.72 µM
- CC50 [19]: 694 µM

SMILES: c1cncc(Nc2nnc(-c3ccc(C(c4c[nH]c5ccccc45)c4c[nH]c5ccccc45)cc3)s2)c1
- IC50 [2]: 0.7 µM

SMILES: OCc1cn(-c2cc(O)ccc2O)nn1
- IC50 [21]: 23 µM
- MIC90 [22]: 16 µM (≈ 3.32 µg/mL)

SMILES: COC(=O)[C@]12CCC(C)(C)C[C@H]1C1=CC[C@@H]3[C@@]4(C)CC[C@@H]5O[C@H](c6ccccc6C(=O)O)OC[C@@]5(C)[C@@H]4CC[C@@]3(C)[C@]1(C)CC2
- EC50 [23]: 5 µM

SMILES: CC(CCCCCCC[n+]1ccn(C)c1)Oc1ccc(C(=O)/C=C/c2ccco2)cc1 (stereo unspecified)
- EC50 [20]: 0.66 µM
- EC50 [4]: 0.78 µM

SMILES: Cc1cccc(Nc2nnc(-c3ccc(C(c4c[nH]c5ccccc45)c4c[nH]c5ccccc45)cc3)s2)c1
- IC50 [2]: 0.7 µM

SMILES: COc1ccc(-c2nn(-c3ccccc3)cc2/C=N/N=C/c2c(C)nn(-c3ccccc3)c2Cl)cc1
- IC50 [1]: 1.45 µM
